Data taken from ChEMBL document CHEMBL1201862, “PubChem BioAssay data set” (2004).
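The compound was tested at five concentrations on cells cultured in 96-well plates, with a 48-hour exposure period. Abbreviation: GI50, concentration required for 50% inhibition of growth.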 Activity calls are given as the source filed them. Cut-off read from the data, not from the text of the source: active = GI50 up to about 1.1 µM and inactive = higher.

Assays:
Assay in all cases: NCI tumour cell line growth inhibition, 48 h
HL-60 = system: HL-60
SF-268 = system: SF-268
SR = system: SR
UACC-257 = system: UACC-257
Malme-3M = system: Malme-3M
NCI-H522 = system: NCI-H522
K562 = system: K562
SK-MEL-28 = system: SK-MEL-28
HT-29 = system: HT-29
NCI-H226 = system: NCI-H226
SK-MEL-2 = system: SK-MEL-2
HCC 2998 = system: HCC 2998
RPMI-8226 = system: RPMI-8226
HCT-116 = system: HCT-116
LOX IMVI = system: LOX IMVI
TK-10 = system: TK-10
A549 = system: A549
COLO 205 = system: COLO 205
NCI/ADR-RES = system: NCI/ADR-RES

Measured: GI50

C=C(CN(C)C)C(=O)c1ccc(C(=O)C(=C)CN(C)C)cc1
inactive: HL-60 > 100 µM | SF-268 > 100 µM | SR > 100 µM | UACC-257 > 100 µM | Malme-3M > 100 µM | NCI-H522 > 100 µM | K562 > 100 µM | SK-MEL-28 > 100 µM | HT-29 > 100 µM | NCI-H226 > 100 µM | SK-MEL-2 > 100 µM | HCC 2998 > 100 µM | RPMI-8226 > 100 µM | HCT-116 > 100 µM | LOX IMVI > 100 µM | TK-10 > 100 µM | A549 35.2 µM | COLO 205 > 100 µM

CC12CC3c4ccccc4CN1C3(c1ccccc1)OC2=O (stereo not drawn)
inactive: HL-60 > 100 µM | SF-268 > 100 µM | UACC-257 > 100 µM | Malme-3M > 100 µM | NCI-H522 > 100 µM | SK-MEL-28 > 100 µM | HT-29 > 100 µM | NCI-H226 > 100 µM | SK-MEL-2 > 100 µM | HCT-116 > 100 µM | LOX IMVI > 100 µM | NCI/ADR-RES > 100 µM | TK-10 > 100 µM | A549 > 100 µM | COLO 205 > 100 µM

BrC1=CC=C2NC=CC3=CC=NC1C32 (stereo not drawn)
inactive: HL-60 4.08 µM | SF-268 15.5 µM | SR 4.57 µM | UACC-257 33.5 µM | Malme-3M 27.7 µM | NCI-H522 11.5 µM | K562 12.2 µM | SK-MEL-28 37.7 µM | HT-29 14.9 µM | NCI-H226 14.2 µM | SK-MEL-2 18.9 µM | HCC 2998 35.1 µM | RPMI-8226 11.4 µM | HCT-116 6.03 µM | LOX IMVI 9.55 µM | TK-10 34.1 µM | COLO 205 21.6 µM

CC1(C)O[C@@H](CCl)C[C@@H](C#N)O1
inactive: HL-60 > 100 µM | SF-268 > 100 µM | SR > 100 µM | UACC-257 > 100 µM | Malme-3M > 100 µM | NCI-H522 > 100 µM | K562 > 100 µM | SK-MEL-28 > 100 µM | HT-29 > 100 µM | NCI-H226 > 100 µM | SK-MEL-2 > 100 µM | HCC 2998 > 100 µM | RPMI-8226 > 100 µM | HCT-116 > 100 µM | LOX IMVI > 100 µM | TK-10 > 100 µM | A549 > 100 µM | COLO 205 > 100 µM

O=C(c1ccccc1)N1CCc2c([nH]c3ccccc23)C1
inactive: HL-60 15.7 µM | SR 33.1 µM | UACC-257 28.7 µM | Malme-3M 35.8 µM | NCI-H522 22 µM | K562 45.4 µM | SK-MEL-28 24.8 µM | HT-29 72.4 µM | NCI-H226 51.8 µM | SK-MEL-2 27.1 µM | HCC 2998 94.4 µM | RPMI-8226 23.5 µM | HCT-116 38 µM | LOX IMVI 88.1 µM | TK-10 44.3 µM | A549 50.4 µM | COLO 205 19.2 µM

COc1cc(/C=C2\NC(=O)C(Cc3cc(OC)c(OC)c(C)c3OC)N(C(C)=O)C2=O)c(OC)c(C)c1OC (stereo not drawn)
inactive: HL-60 23 µM | SF-268 > 100 µM | SR > 100 µM | UACC-257 > 100 µM | Malme-3M 83.6 µM | NCI-H522 21.8 µM | K562 61.2 µM | SK-MEL-28 > 100 µM | HT-29 > 100 µM | NCI-H226 59.2 µM | SK-MEL-2 96.4 µM | HCC 2998 > 100 µM | RPMI-8226 45.6 µM | HCT-116 > 100 µM | LOX IMVI > 100 µM | TK-10 > 100 µM | A549 > 100 µM | COLO 205 54.7 µM
